Legend:
[1] = molecular target: T1, PI3Kα (Homo sapiens, UniProt P42336); assay: PI3Kα molecular activity test (ADP-GLO); format: biochemical; conditions: for Selectivity (PI3Kδ IC50/PI3KαIC50): PI3Kδ IC50/PI3Kα IC50; for IC50: recombinant protein, 100 μM ATP, 2 hours at room temperature
T1 construct: purchased Carna Bioscience
Method: (§1) Instrument: ELISA Reader Envision™ (PerkinElmer, USA)
(§2) Materials: Human recombinant PI3K and PI3Kδ proteins, purchased from Carna Bioscience; ADP-GLO kit, purchased from Promega.
(§3) Take the PI3Kα Molecular Activity Test as an Example to Describe the Text Method of the PI3K Subtypes
(§4) PI3K-α recombinant protein and substrate ATP were diluted with kinase reaction buffer (50 mM Tris-HCl, pH 7.4, 2.1 mM DTT, 0.05% Tween-20, 10 mM MgCl2). […] The specific reaction system was 2% of DMSO, 0.8 ng/μL PI3K-α, and 100 μM ATP, the positive compound control groups and control wells were set, and there were 3 multiple-wells for each concentration of each sample. After incubating for 2 hours at room temperature, ADP-GLO Reagent and Kinase Detection Reagent were added respectively, and then Envision™ was used to detect the […] readings. The activity rate of the samples were calculated by the sample readings, and the calculation formula was: activity rate=(ODcompound−ODcontrol)/(ODDMSO−ODcontro) ×100%.

[2] = molecular target: T2, PI3Kδ (Homo sapiens, UniProt O00329); assay: PI3Kδ molecular activity test (ADP-GLO); format: biochemical; conditions: recombinant protein
T2 construct: purchased Carna Bioscience
Method: as §1, §2, §3, §4

[3] = test system: MCF7 (PIK3CA mut); assay: Tumor cell proliferation, CCK8 method, MCF7; format: cell-based, human; conditions: Homo sapiens; CCK8, MCF7; read-out: MCF7 (PIK3CA mut) proliferation IC50
Method: (§5) The IC50 value was calculated using Graphpad Prism V5.0 software.

[4] = test system: KPL4 (PIK3CA mut); assay: Tumor cell proliferation, CCK8 method, KPL4; format: cell-based; conditions: CCK8, KPL4; read-out: KPL4 (PIK3CA mut) proliferation IC50
Method: as §5

[5] = test system: SW48 (PIK3CA mut); assay: Tumor cell proliferation, CCK8 method, SW48; format: cell-based; conditions: Homo sapiens; CCK8, SW48; read-out: SW48 (PIK3CA mut) proliferation IC50
Method: as §5

[6] = test system: ZR-75-1 (PTEN loss); assay: Tumor cell proliferation, CCK8 method, ZR-75-1; format: cell-based; conditions: Homo sapiens; CCK8, ZR-75-1
Method: as §5

T2 sequence (O00329 whole entry): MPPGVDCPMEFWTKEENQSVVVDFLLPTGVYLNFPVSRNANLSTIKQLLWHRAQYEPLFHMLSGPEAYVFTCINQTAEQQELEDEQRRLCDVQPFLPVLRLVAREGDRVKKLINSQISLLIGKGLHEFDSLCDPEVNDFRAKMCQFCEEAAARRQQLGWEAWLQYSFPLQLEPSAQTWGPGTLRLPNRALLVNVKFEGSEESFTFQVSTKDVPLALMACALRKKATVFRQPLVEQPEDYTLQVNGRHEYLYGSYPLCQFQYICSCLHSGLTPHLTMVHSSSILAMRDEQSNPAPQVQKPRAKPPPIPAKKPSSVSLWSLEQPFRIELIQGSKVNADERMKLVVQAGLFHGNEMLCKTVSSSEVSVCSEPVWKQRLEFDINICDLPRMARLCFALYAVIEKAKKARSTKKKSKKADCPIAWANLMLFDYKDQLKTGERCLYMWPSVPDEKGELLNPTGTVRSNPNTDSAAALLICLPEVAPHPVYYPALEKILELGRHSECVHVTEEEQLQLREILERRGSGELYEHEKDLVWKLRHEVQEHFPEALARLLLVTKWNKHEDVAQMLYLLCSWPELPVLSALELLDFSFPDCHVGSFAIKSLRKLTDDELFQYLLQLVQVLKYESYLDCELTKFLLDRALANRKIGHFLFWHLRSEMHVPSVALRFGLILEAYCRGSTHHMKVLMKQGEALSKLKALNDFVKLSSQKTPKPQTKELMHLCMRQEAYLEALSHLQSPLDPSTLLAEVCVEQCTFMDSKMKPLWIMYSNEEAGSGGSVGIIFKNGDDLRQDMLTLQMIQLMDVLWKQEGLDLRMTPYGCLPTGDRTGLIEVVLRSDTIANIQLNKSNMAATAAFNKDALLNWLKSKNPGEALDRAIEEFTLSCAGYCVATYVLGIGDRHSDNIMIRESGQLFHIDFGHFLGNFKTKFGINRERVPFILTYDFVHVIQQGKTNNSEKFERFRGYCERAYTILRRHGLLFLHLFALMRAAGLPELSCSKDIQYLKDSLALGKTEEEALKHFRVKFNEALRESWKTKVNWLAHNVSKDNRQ
T2 sequence (P27986 whole entry partner): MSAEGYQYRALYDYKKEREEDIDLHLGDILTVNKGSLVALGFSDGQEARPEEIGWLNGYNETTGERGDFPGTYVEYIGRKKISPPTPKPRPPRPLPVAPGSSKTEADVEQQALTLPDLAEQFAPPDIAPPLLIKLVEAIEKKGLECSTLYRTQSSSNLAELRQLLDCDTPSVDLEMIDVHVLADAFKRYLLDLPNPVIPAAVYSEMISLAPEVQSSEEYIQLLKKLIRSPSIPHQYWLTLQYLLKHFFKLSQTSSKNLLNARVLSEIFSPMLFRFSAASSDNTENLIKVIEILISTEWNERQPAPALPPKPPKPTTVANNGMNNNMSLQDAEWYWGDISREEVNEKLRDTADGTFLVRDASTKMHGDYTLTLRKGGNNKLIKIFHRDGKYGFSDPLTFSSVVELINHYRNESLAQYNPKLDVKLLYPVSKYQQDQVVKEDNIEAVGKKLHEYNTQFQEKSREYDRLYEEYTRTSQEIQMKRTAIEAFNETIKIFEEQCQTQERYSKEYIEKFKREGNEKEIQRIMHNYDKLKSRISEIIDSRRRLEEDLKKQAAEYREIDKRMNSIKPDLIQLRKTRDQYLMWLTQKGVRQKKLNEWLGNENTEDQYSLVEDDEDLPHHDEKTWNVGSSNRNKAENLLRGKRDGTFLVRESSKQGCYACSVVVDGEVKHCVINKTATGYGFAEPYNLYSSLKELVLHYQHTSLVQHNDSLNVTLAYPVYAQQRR
T1 sequence (P42336 whole entry): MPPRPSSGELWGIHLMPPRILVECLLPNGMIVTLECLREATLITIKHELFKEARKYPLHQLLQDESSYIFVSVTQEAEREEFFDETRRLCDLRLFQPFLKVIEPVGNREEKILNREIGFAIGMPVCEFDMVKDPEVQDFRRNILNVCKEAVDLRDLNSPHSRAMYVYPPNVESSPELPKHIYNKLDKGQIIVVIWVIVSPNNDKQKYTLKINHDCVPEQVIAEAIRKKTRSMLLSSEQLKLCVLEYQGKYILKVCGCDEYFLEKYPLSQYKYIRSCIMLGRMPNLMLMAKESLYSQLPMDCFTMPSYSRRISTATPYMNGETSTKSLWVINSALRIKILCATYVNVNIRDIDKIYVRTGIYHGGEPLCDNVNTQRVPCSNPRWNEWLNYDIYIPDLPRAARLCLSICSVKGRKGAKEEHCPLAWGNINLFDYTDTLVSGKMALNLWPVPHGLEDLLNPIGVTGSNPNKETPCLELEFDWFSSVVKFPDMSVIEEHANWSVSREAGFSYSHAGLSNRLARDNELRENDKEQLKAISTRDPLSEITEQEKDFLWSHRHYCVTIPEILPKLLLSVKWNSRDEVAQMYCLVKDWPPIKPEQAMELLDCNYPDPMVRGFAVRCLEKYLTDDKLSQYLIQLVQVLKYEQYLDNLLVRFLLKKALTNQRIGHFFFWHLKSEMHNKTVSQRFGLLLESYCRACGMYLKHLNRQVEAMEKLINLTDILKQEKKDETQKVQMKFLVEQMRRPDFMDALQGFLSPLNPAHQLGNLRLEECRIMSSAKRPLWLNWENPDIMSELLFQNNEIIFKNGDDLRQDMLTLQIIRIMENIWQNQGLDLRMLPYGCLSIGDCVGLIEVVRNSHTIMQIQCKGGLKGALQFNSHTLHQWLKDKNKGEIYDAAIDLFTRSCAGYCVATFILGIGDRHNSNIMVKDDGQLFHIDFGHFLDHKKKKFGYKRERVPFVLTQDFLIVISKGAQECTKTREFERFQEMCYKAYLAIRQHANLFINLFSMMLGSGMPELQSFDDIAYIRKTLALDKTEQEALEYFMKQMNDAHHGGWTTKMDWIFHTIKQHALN
T1 sequence (P27986 whole entry partner): as the sequence (P27986 whole entry partner) above

Row | SMILES | Selectivity (PI3Kδ IC50/PI3KαIC50) [1] | IC50 [1] [nM] | IC50 [2] [nM] | IC50 [3] [nM] | IC50 [4] [nM] | IC50 [5] [nM] | IC50 [6] [nM]
1 | CCn1c(NC(=O)c2cnc(N)nc2)nc2c(OC)c(O)ccc2c1=O [7b, 2-amino-N-(3-ethyl-7-hydroxy-8-methoxy-4-oxo-3 ,4-dihydroquinazolin-2-yl) pyrimidine-5-carboxamide] | II (“II” represents 5-10 times) | < 20 | 20 to 200 | < 20 | 20 to 200 | < 20 | 20 to 200
2 | COc1c(O)ccc2c(=O)n(CC(F)(F)F)c(NC(=O)c3cnc(N)nc3)nc12 [7e, 2-amino-N-(3-trifluoroethyl-7-hydroxy-8-methoxy-4-oxo-3,4-dihydroquinazolin-2-yl) pyrimidine-5-carboxamide] | I (“I” represents <5 times) | 20 to 200 | 20 to 200 | – | – | – | –
3 | COc1c(O)ccc2c(=O)n(CC(F)F)c(NC(=O)c3cnc(N)nc3)nc12 [7f, 2-amino-N-(3-difluoroethyl-7-hydroxy-8-methoxy-4-oxo-3,4-dihydroquinazolin-2-yl) pyrimidine-5-carboxamide] | I (“I” represents <5 times) | 20 to 200 | 20 to 200 | – | – | – | –
4 | COc1c(OCCC(N)=O)ccc2c(=O)n(C)c(NC(=O)c3cnc(N)nc3)nc12 [8a-3] | III (“III” represents >10 times) | < 20 | 20 to 200 | < 20 | < 20 | < 20 | < 20
5 | CNC(=O)COc1ccc2c(=O)n(C)c(NC(=O)c3cnc(N)nc3)nc2c1OC [8a-4] | II (“II” represents 5-10 times) | < 20 | 20 to 200 | – | – | – | –
6 | COc1c(OCC(=O)N(C)C)ccc2c(=O)n(C)c(NC(=O)c3cnc(N)nc3)nc12 [8a-5] | II (“II” represents 5-10 times) | < 20 | 20 to 200 | – | – | – | –
7 | COc1c(OCCCC(N)=O)ccc2c(=O)n(C)c(NC(=O)c3cnc(N)nc3)nc12 [8a-9] | III (“III” represents >10 times) | < 20 | 20 to 200 | – | – | – | –
8 | COc1c(OCCCN2CCOCC2)ccc2c(=O)n(C)c(NC(=O)c3cncnc3)nc12 [8a-14] | II (“II” represents 5-10 times) | < 20 | 20 to 200 | – | – | – | –
9 | COc1c(OCCCN2CCOCC2)ccc2c(=O)n(C)c(NC(=O)c3ccnnc3)nc12 [8a-15] | II (“II” represents 5-10 times) | < 20 | 20 to 200 | – | – | – | –
10 | COc1c(OCCCN2CCOCC2)ccc2c(=O)n(C)c(NC(=O)c3ccc(N)nc3)nc12 [8a-16] | II (“II” represents 5-10 times) | < 20 | 20 to 200 | – | – | – | –
11 | CCOC(=O)COc1ccc2c(=O)n(C)c(NC(=O)c3cnc(N)nc3)nc2c1OC [8a-29] | III (“III” represents >10 times) | < 20 | 200 to 1000 | < 20 | 20 to 200 | 20 to 200 | 200 to 1000
12 | COc1c(OCCNS(C)(=O)=O)ccc2c(=O)n(C)c(NC(=O)c3cnc(N)nc3)nc12 [8a-30, 2-amino-N-(8-methoxy-3-methyl-7-(2-(methylsulfonamido)ethoxy)-4-oxo-3,4-dihydroquinazolin-2-yl) pyrimidine-5-carboxamide] | II (“II” represents 5-10 times) | < 20 | 20 to 200 | < 20 | 20 to 200 | 20 to 200 | 200 to 1000
13 | COc1c(OC[C@@H](O)CN2CCOCC2)ccc2c(=O)n(C)c(NC(=O)c3ccc(N)nc3)nc12 [8a-38, (S)-6-amino-N-(7-(2-hydroxy-3-morpholinopropoxy)-8-methoxy-3-methyl-4-oxo-3,4-dihydroouinazolin-2-yl) nicotinamide] | II (“II” represents 5-10 times) | < 20 | 20 to 200 | < 20 | 20 to 200 | 20 to 200 | 200 to 1000
14 | COc1c(OC[C@H](O)CN2CCOCC2)ccc2c(=O)n(C)c(NC(=O)c3ccc(N)nc3)nc12 [8a-39, (R)-6-amino-N-(7-(2-hydroxy-3-morpholinopropoxy)-8-methoxy-3-methyl-4-oxo-3,4-dihydroquinazolin-2-yl) nicotinamide] | II (“II” represents 5-10 times) | < 20 | 20 to 200 | < 20 | 20 to 200 | 20 to 200 | 200 to 1000
15 | CCn1c(NC(=O)c2cnc(N)nc2)nc2c(OC)c(OCCC(N)=O)ccc2c1=O [8b-3] | III (“III” represents >10 times) | < 20 | 20 to 200 | – | – | – | –
16 | CCn1c(NC(=O)c2cncnc2)nc2c(OC)c(OCCCN3CCOCC3)ccc2c1=O [8b-14] | II (“II” represents 5-10 times) | 20 to 200 | < 20 | – | – | – | –
17 | COc1c(OCC(N)=O)ccc2c(=O)n(C(C)C)c(NC(=O)c3cnc(N)nc3)nc12 [8c-2] | I (“I” represents <5 times) | 20 to 200 | 20 to 200 | – | – | – | –
18 | COc1c(OCCC(N)=O)ccc2c(=O)n(C(C)C)c(NC(=O)c3cnc(N)nc3)nc12 [8c-3] | I (“I” represents <5 times) | 20 to 200 | 20 to 200 | – | – | – | –
19 | COc1c(OCC(N)=O)ccc2c(=O)n(C3CC3)c(NC(=O)c3cnc(N)nc3)nc12 [8d-2] | I (“I” represents <5 times) | 20 to 200 | 20 to 200 | – | – | – | –
20 | COc1c(OCCCN2CCOCC2)ccc2c(=O)n(CC(F)F)c(NC(=O)c3cnc(N)nc3)nc12 [8f-1] | – | – | – | < 20 | 20 to 200 | 20 to 200 | 200 to 1000
21 | Cc1nc(NC(=O)N2CCC[C@H]2C(N)=O)sc1-c1ccnc(C(C)(C)C(F)(F)F)c1 [Alpelisib, reference compound] | – | – | – | < 20 | 20 to 200 | 20 to 200 | 20 to 200

Results, then the compound that gave them:

Row | Selectivity (PI3Kδ IC50/PI3KαIC50) [1] | IC50 [1] [nM] | IC50 [2] [nM] | IC50 [3] [nM] | IC50 [4] [nM] | IC50 [5] [nM] | IC50 [6] [nM] | SMILES
22 | III (“III” represents >10 times) | < 20 | 20 to 200 | – | – | – | – | COc1c(O)ccc2c(=O)n(C)c(NC(=O)c3cnc(N)nc3)nc12 [7a, 2-Amino-N-(8-methoxy-3-methyl-7-hydroxy-4-oxo-3,4-dihydroquinazolinone-2-yl) pyrimidine-5-carboxamide]
23 | II (“II” represents 5-10 times) | < 20 | 20 to 200 | – | – | – | – | COc1c(OCC(=O)N2CCOCC2)ccc2c(=O)n(C)c(NC(=O)c3cnc(N)nc3)nc12 [8a-8]
24 | III (“III” represents >10 times) | < 20 | 20 to 200 | – | – | – | – | COc1c(OCCCN2CCOCC2)ccc2c(=O)n(C)c(NC(=O)c3cncnc3)cc12 [8a′-8]
25 | III (“III” represents >10 times) | < 20 | 20 to 200 | – | – | – | – | COc1c(OCCCN2CCOCC2)ccc2c(=O)n(C)c(NC(=O)c3ccnnc3)cc12 [8a′-9]
26 | III (“III” represents >10 times) | < 20 | 20 to 200 | – | – | – | – | CCn1c(NC(=O)c2cnc(N)nc2)cc2c(OC)c(OCCC(N)=O)ccc2c1=O [8b′-3]
27 | – | – | – | < 20 | 20 to 200 | 20 to 200 | 200 to 1000 | CCn1c(NC(=O)c2cnc(N)nc2)nc2c(OC(F)F)c(OCCCN3CCOCC3)ccc2c1=O [8g-1]
28 | II (“II” represents 5-10 times) | < 20 | 20 to 200 | – | – | – | – | Cn1c(NC(=O)c2cnc(N)nc2)cc2c3c(ccc2c1=O)OCCO3 [14a′-2]
29 | II (“II” represents 5-10 times) | < 20 | 20 to 200 | – | – | – | – | Cn1c(NC(=O)c2cnc(N)nc2)cc2c3c(ccc2c1=O)OCCCCO3 [14a′-4]
30 | II (“II” represents 5-10 times) | < 20 | 20 to 200 | – | – | – | – | Cn1c(NC(=O)c2cnc(N)nc2)cc2c3c(ccc2c1=O)OCCOCCO3 [14a′-5]
31 | II (“II” represents 5-10 times) | < 20 | 20 to 200 | – | – | – | – | Cn1c(NC(=O)c2cnc(N)nc2)cc2c3c(ccc2c1=O)OCCOCCOCCO3 [14a′-6]
32 | II (“II” represents 5-10 times) | < 20 | 20 to 200 | – | – | – | – | Cn1c(NC(=O)c2cnc(N)nc2)cc2c3c(ccc2c1=O)OCCOCCOCCOCCO3 [14a′-7]
33 | I (“I” represents <5 times) | < 20 | < 20 | – | – | – | – | CCn1c(NC(=O)c2cnc(N)nc2)cc2c3c(ccc2c1=O)OCCO3 [14b′-2]
34 | I (“I” represents <5 times) | 20 to 200 | 20 to 200 | – | – | – | – | CCn1c(NC(=O)c2cnc(N)nc2)cc2c3c(ccc2c1=O)OCCCCO3 [14b′-4]

Reference: patent US12404269B2, “Aminoquinazolinone and aminoisoquinolinone derivatives and application thereof” (ZHEJIANG UNIVERSITY, priority 2018, dated 2025)
